According to US20020058637A1, “Methods of inhibiting tau-protein kinase I activity, inhibiting neuronal cell death and treating alzheimer's disease and tau-protein kinase I” (priority 1993, published 2002):
“Also recorded” adds a separate entry of the source.

Experiments:
[1] = test system: hippocampus cells; test: Inhibiting action for the death of cranial nerve cells by AβP (living cell count, phase contrast microscope); type: cell-based, rat; settings: for Numbers of Living Cells (%) After 6 hours / Numbers of Living Cells (%) After 21 hours: rat hippocampus cell culture, AβP 20 micromoles, oligonucleotide 1 micromole per 1 ml medium, 37° C., percentage to control
From the text: Numbers of many normal and healthy cells were counted by a phase contrast microscope as an index of the living cells after the treatment. Normal cells mean those which have morphologically flat circumference and many nerve cell projections while the degenerated cells were judged by checking the irregular shape, degeneration of the neural projections, etc. Numbers of the living cells were counted in a well. In the standard culture liquid, the cell numbers were not less than 400 per well. The result was confirmed by an immunohistochemical means.
The primary culture medium of hippocampus of rats was prepared in accordance with a method described in Brain Res., 126, 397-425 (1977). Thus, the hippocampus tissues were collected from embryo of the rats of 18 days after fertilization and digested in papain (protease) (10 U/ml) at 37° C. for 20 minutes. The resulting cells were added to a Dulbecco's modified Eagle's medium supplied with 5% bovine fetus serum, 5% horse serum, 10 micrograms/ml insulin, 0.1 mg/ml transferrin, 1 microgram/ml aprotinin, 1 mM sodium pyruvate and 84 micrograms/ml gentamycin. This was planted to a well for tissue culture covered with poly-L-lysine at the density of 2×10^5 cells/cm^2, cultured for three days and treated with 1 micromole of cytosine-beta-arabinofuranoside for 24 hours and the cells of the fifth day of the culture were used.
The culture medium of the hippocampus prepared by the above-mentioned method was subjected to the following treatments (b) to (d), numbers of the living cells with an elapse of time were counted and the result is given in Table
(a) Nontreated culture medium (control):
(b) TPKI-antisense (1 micromole) was added to 1 ml of the cell culture medium and, after five minutes, 20 micromoles of AβP was added followed by keeping at 37° C. for 24 hours.
(c) AβP (20 micromoles) was added to 1 ml of the cell cuture medium followed by keeping at 37° C. for 24 hours.
(d) TPKI-sense (1 micromole) was added to 1 ml of the cell culture medium and, after five minutes, 20 micromoles of AμP was added followed by keeping at 37° C. for 24 hours.

[2] = test system: TPK-I; test: Phosphorylation of tau-protein by extract of treated hippocampus cells (phosphorylating activity of TPK-I); type: cell-based, rat; settings: 24 hours
Method: Hippocampus cells were collected from the culture medium by washing with an ice-cooled phosphate buffer for three times. The cells were suspended in a buffer A (pH: 6.8) which contained 1 mM EGTA, 0.5 mM magnesium acetate and 20 mM 2-(N-morpholino)-ethanesulfonic acid containing a phosphatase inhibitor ([…]; manufactured by Seikagaku Kogyo) and a protease inhibitor (1 mM phenylmethylsulfonyl fluoride and each 1 micro gram/ml of leupeptin, pepstatin and aprotinin), homogenized and centrifuged at 14,000 rpm for one hour and the supernatant liquid was used for checking the phosphorylation.
The rat tau-protein expressed in E. coli BL21 by a gene recombination was purified by a method described in J. Biol. Chem., 267, 10897-10901 (1992).
The hippocampus extract (1 microliter) was added to a solution of the rat tau-protein (400 micrograms/ml) dissolved in a buffer A containing 1 mM [τ-^32P]ATP (10-20 Ci/mmole) and then 10 micromoles of okadaic acid was added to make the final volume 10 microliters. This was incubated at 37° C. for three hours and the reaction was stopped by adding a buffer for electrophoresis. After subjecting to a 10% polyacrylamide gel electrophoresis, the ^32p in the tau-protein was observed by a laser image analyzer (Fuji BAS 2000).

[3] = test system: tau-protein; test: Phosphorylation of tau-protein by recombinant human TPK-I expressed in E. coli (phosphorylating method I); type: biochemical, bovine; settings: room temperature, 20 hours
Method: tau-Protein extracted from bovine brain followed by purification (2 microliters; 1.5 mg/ml concentration) and 1 microliters of the above partially-purified enzyme solution were mixed. To the mixture was added a solution containing 2 mM adenosinetriphosphate and 2 mM magnesium acetate and [gamma-32P]adenosinetriphosphate so that the phosphorylation of tau-protein was conducted at room temperature for 20 hours whereby the amount of phosphoric acid incorporated in tau-protein was evaluated.

Substance | Numbers of Living Cells (%) After 6 hours [1] | Numbers of Living Cells (%) After 21 hours [1] | cytotoxity by AβP observed with phase contrast microscope ([1]; TPKI-antisense and AβP on hippocampus cells, after 24 hours, magnifying power 400) | phosphorylating activity of TPK-I relative to the case in which only AβP was acted ([2]; TPKI-antisense and AβP versus only AβP) | Phosphorylating Activity of TPKI ([2]; hippocampus cell supernatant, AβP 20 micromoles, TPKI-antisense 1 micromole, rat tau-protein substrate) | phosphoric acid incorporated into one molecule of tau-protein [3]
5′-ATGTCGGGGCGACCGAGA-3′ (listed as DNA, chemistry not given here) [TPKI-Sense, tested together with AβP, reference compound] | 49.5% | 17.1% |  |  |  | 
5′-TCTCGGTCGCCCCGACAT-3′ (listed as DNA, chemistry not given here) [TPKI-Antisense, tested together with AβP] | 83.0% | 72.6% | little being similar to the controls; also recorded: little and similar to the case of the control | about one half; also recorded: about one-half | 31.6 unit/mg protein | 
partially-purified TPK-I: recombinant human-originated tau-protein kinase I (Seq. ID No. 1) expressed in E. coli BL21 (DE3), partially purified |  |  |  |  |  | 1.2 mol
